Measurements taken from patent US20240116850A1, “COMPOSITIONS AND METHODS RELATED TO BICYCLO[2.2.1] HEPTANAMINE-CONTAINING COMPOUNDS” (The Broad Institute, Inc., priority 2020, published 2024).
Values belong to the molecule of their own block, whether it stands above or below them.

Key:
[1] = Dynamic Vapor Sorption (DVS) hygroscopicity; assay type: physicochemical; details: for DVS (matrix of results from solid form characterization): summary grade Good/Moderate/Poor
Description: Dynamic Vapor Sorption (DVS) was measured via a SMS (Surface Measurement Systems) DVS Intrinsic. The relative humidity at 25° C. were calibrated against the deliquescence point of LiCl, Mg(NO3)2 and KCl.

[2] = Physical and chemical stability on storage (LC-MS and XRPD); assay type: physicochemical; details: for decomposition or solid form change in stability assay / Stability (matrix of results from solid form characterization): 1 week stability assay; for Solid Form after storage (XRPD) / Stability: 25/60% RH; 40 C./75% RH; 1 week / Form change?: 1 week; for Stability: 25/60% RH; 40 C./75% RH; 1 week / Form change?: BRD4780 salt solid form, 25/60% RH and 40 C./75% RH; for Stability: 25/60% RH; 40 C./75% RH; 1 week: impurities estimated by LCMS by observation of the TIC; for Form change?: solid form change (XRPD); for Stability (matrix of results from solid form characterization): summary grade Good/Moderate/Poor
Description: To compare the physical/chemical stability of the salt candidates, approximate 10 mg of each solid sample was added to a 5-mL glass vial covered with Parafilm® with several pin-holes on it, and then stored under 25° C./60% RH and 40° C./75% RH. After one week storage, solids were taken out for LC-MS and XRPD test to evaluate physical and chemical stability.

[3] = TGA and DSC thermal characterization of salts; assay type: physicochemical; details: summary grade Good/Moderate/Poor
Description: TGA data were collected using a TA Discovery5500/Q5000 TGA from TA Instruments. DSC was performed using a TA Discovery2500/Q2000 DSC from TA Instruments.

[4] = Equilibrium solubility in water and bio-relevant media (SGF, FaSSIF, FeSSIF); details: for solubility: thermodynamic from solid; for Solubility (matrix of results from solid form characterization): summary grade Good/Moderate/Poor
MUC1-fs = assay: High-content imaging assay of MUC1-fs total cytoplasm intensity in P cells; assay type: cell-based; details: for EC50: MUC1-fs total cytoplasm intensity, P cells, 48 hr incubation; for ECMax: MUC1-fs, DMSO = 0, JQ1 (250 nM) = −100% activity
Description: (§1) P cells were seeded 24 hr prior to compound treatment at a density of 12,000 cells/well in 384 well Cell Carrier Ultra plates (6057308, Perkin Elmer), pre-coated with 0.25 mg/mL Synthemax 11 SC Substrate (3535, Corning). Compounds were used at 5 doses (35, 3.5, 0.35, 0.035 and 0.0035 μM) for the primary screen and 10 doses (16, 5.6, 1.8, 0.6, 0.21, 0.07, 0.02, 0.008, 0.002 and 0.0008 μM) for the following screens. The compounds, in two replicates, were transferred from compound source plates to the cell plates using the HighRes Pin Tool. DMSO was used as a negative control and JQ1 (250 nM) (a bromodomain inhibitor) was chosen as a positive control, based on earlier studies showing its potent effect on reducing total MUC1 mRNA levels (data not shown). After 48 hr incubation, cells were fixed for 20 min in 4% PFA (Electron Microscopy Sciences) in PBS, washed twice, then permeabilized (10 min) with 0.5% Triton-X100 (X100-100MVL, Sigma-Aldrich) in PBS and washed once more. Cells were blocked for 10 min at RT with Blocking solution (100 mM Tris HCL pH8; l150 mM NaCL; 5 g/L Blocking Reagent [11096176001, Roche]), then incubated 90 min at RT with one of the following primary antibodies in Roche Blocking solution: 1:500, monoclonal Fab-A-V5H anti-MUC1-fs, AbD22655.2, Bio-Rad; 1:2000, monoclonal mouse anti-MUC1 (214D4), 05-652-KC, Millipore; 1:1000, monoclonal, Rabbit anti-GM130 (D6B1) XP, 12480, Cell signaling technology. The primary antibody cocktail was incubated at RT for 1.5 hr, followed by four PBS wash cycles. The secondary antibody cocktail contained four components that were all prepared at a 1:1000 dilution in the Roche blocking solution and consisted of Alexa Fluor® 488-conjugated AffiniPure F(ab′)2 Fragment Goat anti-Human IgG, 109-546-097, Jackson Immunoresearch; Alexa Fluor® 647-conjugated Goat anti-Rabbit IgG, A-21246, Thermo Fisher Scientific®; Alexa Fluor® 546 Goat anti-mouse IgG, A-21123, Thermo Fisher Scientific® and Hoechst 33342 stain (62249, Thermo Fisher Scientific®). The secondary antibody cocktail was incubated at RT for 45 min, followed by four PBS wash cycles. Finally, plates were sealed with a Plate Loc plate and stored in Liconic incubator at 10° C. until imaging. Following image analysis, three parameters were selected, i) MUC1-fs and ii) MUC1-wt total cytoplasm intensity (averaged per cell) and iii) cell number as was detected by Hoechst 33342 stained nuclei. The levels of MUC1-fs and MUC1-wt found following DMSO and JQ1 were defined as 0 and −100% activity, respectively. The values obtained for all compounds were normalized accordingly. Cell number was normalized to DMSO control.
(§2) The pure enantiomers were profiled in the high-content imaging assay for the ability to reduce the amount of FS MUC1 protein in the cytoplasm (Table 48) following the procedure of Example 4.

MUC1-wt = assay: High-content imaging assay of MUC1-wt total cytoplasm intensity in P cells; assay type: cell-based; details: for EC50: MUC1-wt total cytoplasm intensity, P cells, 48 hr incubation; for WT ECMax: MUC1-wt, DMSO = 0, JQ1 (250 nM) = −100% activity
Description: as §1, §2

[5] = fasted state simulated intestinal fluid (FaSSIF), pH 6.5, fassif, FaSSIF solubility, Fasted State Simulated Intestinal Fluid (pH 6.5)
[6] = fed state simulated intestinal fluid (FeSSIF), pH 5, fessif, FeSSIF solubility, Fed State Simulated Intestinal Fluid (pH 5.0)
[7] = simulated gastric fluid (SGF), pH 1.8, simulated gastric fluid, SGF solubility, Simulated gastric fluid (pH 1.8)
[8] = water, H2O solubility (mM; salt)
[9] = water, H2O solubility (mg/mL; salt), HCl salt tested at 100 mg/mL, other salts at 50 mg/mL

DVS (% H2O uptake at 25 C./80% RH) [1]: 1.18%
DVS (% H2O uptake at 25 C./95% RH) [1]: 5.8%
desorption of absorbed H2O ([1]; DVS): did not fully desorb
hygroscopicity classification ([1]; DVS): hygroscopic
DVS (matrix of results from solid form characterization) [1]: Poor
decomposition or solid form change in stability assay [2]: form change observed
Solid Form after storage (XRPD) ([2]; 25° C./60% RH): Phosphate Type A + B
Solid Form after storage (XRPD) ([2]; 40° C./75% RH): Phosphate Type A + B
Stability: 25/60% RH; 40 C./75% RH; 1 week [2]: No significant impurities
Form change? [2]: Phosphate A
Stability (matrix of results from solid form characterization) [2]: Poor
TGA/DSC (matrix of results from solid form characterization) [3]: Poor
solubility [4, 5]: > 29 mg/mL
solubility [4, 6]: > 27 mg/mL
pH ([4]; final solution in FaSSIF): 5.1
pH ([4]; final solution in FeSSIF): 4.8
pH ([4]; final solution in H2O): 4.4
pH ([4]; final solution in SGF): 3.0
solubility [4, 7]: > 32 mg/mL
Solubility (matrix of results from solid form characterization) [4]: Good
solubility [4, 8]: > 163 mM
solubility [4, 9]: > 33 mg/mL
Structure (SMILES): CC(C)[C@@H]1[C@H]2CC[C@H](C2)[C@H]1N (racemic) [Phosphate Type B]

EC50 (MUC1-fs): > 32 µM
EC50 (MUC1-wt): > 32 µM
Structure (SMILES): Cl.N[C@@H]1[C@@H]2CC[C@@H](C2)[C@H]1C1CCCC1 (single isomer, unassigned) [Compound 116-P1]
ECMax (MUC1-fs): −10.6%
WT ECMax (MUC1-wt): 18.63%

EC50 (MUC1-fs): > 32 µM
EC50 (MUC1-wt): > 32 µM
Structure (SMILES): Cl.N[C@H]1[C@H]2CC[C@H](C2)[C@@H]1C1CCCC1 (single isomer, unassigned) [Compound 116-P2]
ECMax (MUC1-fs): −16.96%
WT ECMax (MUC1-wt): −19.89%

EC50 (MUC1-fs): 25.9 µM
EC50 (MUC1-wt): > 32 µM
Structure (SMILES): Cl.N[C@H]1[C@@H]2CC[C@@H](C2)[C@@H]1C1CCCC1 (single isomer, unassigned) [Compound 117-P1]
ECMax (MUC1-fs): −16.91%
WT ECMax (MUC1-wt): 7.72%

EC50 (MUC1-fs): > 32 µM
EC50 (MUC1-wt): > 32 µM
Structure (SMILES): Cl.N[C@@H]1[C@H]2CC[C@H](C2)[C@H]1C1CCCC1 (single isomer, unassigned) [Compound 117-P2]
ECMax (MUC1-fs): −15.88%
WT ECMax (MUC1-wt): −15.43%

EC50 (MUC1-fs): > 32 µM
EC50 (MUC1-wt): > 32 µM
Structure (SMILES): Cl.N[C@@H]1[C@@H]2CC[C@@H](C2)[C@H]1C1CCCCC1 (single isomer, unassigned) [Compound 118-P1]
ECMax (MUC1-fs): −7.97%
WT ECMax (MUC1-wt): 9.54%

EC50 (MUC1-fs): > 32 µM
EC50 (MUC1-wt): > 32 µM
Structure (SMILES): Cl.N[C@H]1[C@H]2CC[C@H](C2)[C@@H]1C1CCCCC1 (single isomer, unassigned) [Compound 118-P2]
ECMax (MUC1-fs): 0%
WT ECMax (MUC1-wt): 0%

EC50 (MUC1-fs): > 32 µM
EC50 (MUC1-wt): > 32 µM
Structure (SMILES): Cl.N[C@H]1[C@@H]2CC[C@@H](C2)[C@@H]1C1CCCCC1 (single isomer, unassigned) [Compound 119-P1]
ECMax (MUC1-fs): −14.14%
WT ECMax (MUC1-wt): −14.31%

EC50 (MUC1-fs): > 32 µM
EC50 (MUC1-wt): > 32 µM
Structure (SMILES): Cl.N[C@@H]1[C@H]2CC[C@H](C2)[C@H]1C1CCCCC1 (single isomer, unassigned) [Compound 119-P2]
ECMax (MUC1-fs): 0%
WT ECMax (MUC1-wt): 0%

Structure (SMILES): Cl.N[C@H]1[C@H]2CC[C@H](C2)[C@@H]1c1ccccc1 (single isomer, unassigned) [Compound 120-P2]
EC50 (MUC1-fs): > 32 µM
ECMax (MUC1-fs): −24.61%
EC50 (MUC1-wt): > 32 µM
WT ECMax (MUC1-wt): −11.21%

Structure (SMILES): Cl.N[C@@H]1[C@H]2CC[C@H](C2)[C@H]1c1ccccc1 (single isomer, unassigned) [Compound 121-P2]
EC50 (MUC1-fs): > 32 µM
ECMax (MUC1-fs): −9.03%
EC50 (MUC1-wt): > 32 µM
WT ECMax (MUC1-wt): 7.35%

EC50 (MUC1-fs): 0.524 µM
EC50 (MUC1-wt): 12.3 µM
Structure (SMILES): CC(C)[C@@H]1[C@@H]2CC[C@@H](C2)[C@H]1N.Cl [Compound 101]
ECMax (MUC1-fs): −68.74%
WT ECMax (MUC1-wt): 18.4%

EC50 (MUC1-fs): 8.63 µM
EC50 (MUC1-wt): > 32 µM
Structure (SMILES): CC(C)[C@H]1[C@H]2CC[C@H](C2)[C@@H]1N.Cl [Compound 102]
ECMax (MUC1-fs): −60.66%
WT ECMax (MUC1-wt): −16.83%

Structure (SMILES): CCC[C@@H]1[C@H]2CC[C@H](C2)[C@H]1N.Cl [Compound 107-P1]
EC50 (MUC1-fs): 25.8 µM
ECMax (MUC1-fs): −15.72%
EC50 (MUC1-wt): > 32 µM
WT ECMax (MUC1-wt): 14.07%

Structure (SMILES): CCC[C@H]1[C@@H]2CC[C@@H](C2)[C@@H]1N.Cl [Compound 107-P2]
EC50 (MUC1-fs): > 32 µM
ECMax (MUC1-fs): −9.6%
EC50 (MUC1-wt): > 32 µM
WT ECMax (MUC1-wt): 8.96%

Structure (SMILES): CCC[C@H]1[C@H]2CC[C@H](C2)[C@@H]1N.Cl [Compound 108-P1]
EC50 (MUC1-fs): 29.9 µM
ECMax (MUC1-fs): −24.9%
EC50 (MUC1-wt): > 32 µM
WT ECMax (MUC1-wt): −12.05%

Structure (SMILES): CCC[C@@H]1[C@@H]2CC[C@@H](C2)[C@H]1N.Cl [Compound 108-P2]
EC50 (MUC1-fs): 5.6 µM
ECMax (MUC1-fs): 22.43%
EC50 (MUC1-wt): > 32 µM
WT ECMax (MUC1-wt): 16.1%

DVS (% H2O uptake at 25 C./80% RH) [1]: 0.15%
DVS (% H2O uptake at 25 C./95% RH) [1]: 0.16%
hygroscopicity classification ([1]; DVS): not hygroscopic
DVS (matrix of results from solid form characterization) [1]: Good
Solid Form after storage (XRPD) ([2]; 25° C./60% RH): Fumarate Type A
Solid Form after storage (XRPD) ([2]; 40° C./75% RH): Fumarate Type A
Stability: 25/60% RH; 40 C./75% RH; 1 week [2]: No significant impurities
Form change? [2]: No change
Stability (matrix of results from solid form characterization) [2]: Good
TGA/DSC (matrix of results from solid form characterization) [3]: Good
solubility [4, 5]: 12.4 mg/mL
solubility [4, 6]: 17.1 mg/mL
pH ([4]; final solution in FaSSIF): 3.5
pH ([4]; final solution in FeSSIF): 4.1
pH ([4]; final solution in H2O): 3.4
pH ([4]; final solution in SGF): 3.1
solubility [4, 7]: 11.9 mg/mL
Solubility (matrix of results from solid form characterization) [4]: Moderate
solubility [4, 8]: 44.6 mM
solubility [4, 9]: 12.3 mg/mL
Structure (SMILES): CC(C)[C@@H]1[C@H]2CC[C@H](C2)[C@H]1N.O=C(O)/C=C/C(=O)O [Fumarate Type A]
decomposition or solid form change in stability assay [2]: did not display decomposition or solid form change
XRPD after stirring in medium ([4]; 24 hours in FeSSIF): Additional peaks in the XRPD spectra were observed
